From ChEMBL document CHEMBL5518206, “Hit-to-Lead Identification and Validation of a Triaromatic Pleuromutilin Antibiotic Candidate” (J Med Chem, 2024)
In brackets after ≈: the same amount, converted by molar mass.

Tests used:
Staphylococcus aureus [1] = test: Antibacterial activity against multi drug-resistant Staphylococcus aureus USA300 FPR3757 assessed as reduction in bacterial growth at 1 times of MIC concentration measured at first 12 hrs by time-kill assay; assay type: functional
Staphylococcus aureus [2] = test: Antibacterial activity against multi drug-resistant Staphylococcus aureus USA300 FPR3757 assessed as inhibition of visible growth incubated for 20 to 24 hrs by microbroth serial dilution assay; assay type: functional; settings: time 20-24 hrs, read-out: MIC100
hERG (KCNH2) = hERG (KCNH2) (Homo sapiens, UniProt Q12809); test: Inhibition of hERG expressed in HEK293 cells assessed as tail current at 60 uM measured after 8 mins by automated whole-cell Qpatch Clamp assay relative to control; settings: HEK293 cells that express hERG
hERG (KCNH2), sequence (Q12809 whole entry): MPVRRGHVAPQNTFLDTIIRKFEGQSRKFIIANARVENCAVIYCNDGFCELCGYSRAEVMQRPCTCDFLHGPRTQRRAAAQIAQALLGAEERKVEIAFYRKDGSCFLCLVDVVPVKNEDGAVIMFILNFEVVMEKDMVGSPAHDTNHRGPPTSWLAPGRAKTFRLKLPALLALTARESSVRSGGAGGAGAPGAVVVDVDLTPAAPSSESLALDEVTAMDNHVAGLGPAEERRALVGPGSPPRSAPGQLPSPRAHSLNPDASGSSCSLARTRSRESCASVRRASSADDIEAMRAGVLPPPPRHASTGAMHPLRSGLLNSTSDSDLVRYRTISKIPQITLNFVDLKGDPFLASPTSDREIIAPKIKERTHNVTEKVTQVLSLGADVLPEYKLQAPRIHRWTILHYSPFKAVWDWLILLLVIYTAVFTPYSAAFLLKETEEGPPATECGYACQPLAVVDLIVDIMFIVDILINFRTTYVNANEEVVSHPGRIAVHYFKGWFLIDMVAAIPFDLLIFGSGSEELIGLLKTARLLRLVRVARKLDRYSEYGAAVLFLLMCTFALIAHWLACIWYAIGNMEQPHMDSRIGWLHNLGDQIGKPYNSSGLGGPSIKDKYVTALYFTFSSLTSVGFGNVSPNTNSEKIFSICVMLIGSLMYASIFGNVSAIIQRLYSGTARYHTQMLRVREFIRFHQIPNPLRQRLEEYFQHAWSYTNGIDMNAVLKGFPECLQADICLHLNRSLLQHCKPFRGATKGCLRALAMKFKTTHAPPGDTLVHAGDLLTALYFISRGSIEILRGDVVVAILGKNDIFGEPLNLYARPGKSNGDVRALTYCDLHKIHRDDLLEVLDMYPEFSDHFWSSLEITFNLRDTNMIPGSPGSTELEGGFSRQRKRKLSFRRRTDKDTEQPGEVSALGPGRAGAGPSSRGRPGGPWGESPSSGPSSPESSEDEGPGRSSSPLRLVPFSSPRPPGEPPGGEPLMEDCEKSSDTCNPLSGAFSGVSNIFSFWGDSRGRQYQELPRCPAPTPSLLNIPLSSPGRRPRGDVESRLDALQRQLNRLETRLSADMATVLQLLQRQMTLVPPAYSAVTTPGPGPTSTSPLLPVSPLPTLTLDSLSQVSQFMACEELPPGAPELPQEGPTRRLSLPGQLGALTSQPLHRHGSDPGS

[3] = Efflux ratio of apparent permeability from basolateral to apical side over apical to basolateral side in human Caco-2 cells at 100 uM and measured after 120 mins by LC-MS analysis; assay type: ADME, cell-based
in vitro [4] = settings: human, liver microsomes
Staphylococcus aureus [5] = test: Antibacterial activity against multi drug-resistant Staphylococcus aureus USA300 FPR3757 assessed as reduction in bacterial growth of original inoculum at 4 times of MIC concentration measured after 24 hrs by time-kill assay; assay type: functional
Staphylococcus aureus [6] = test: Antibacterial activity against multi drug-resistant Staphylococcus aureus USA300 FPR3757 assessed as reduction in bacterial growth at 4 times of MIC concentration measured after 6 hrs by time-kill assay; assay type: functional
in vitro [7] = settings: mouse, liver microsomes
[8] = Apparent permeability from basolateral to apical side in human Caco-2 cells at 100 uM measured upto 120 mins by LC-MS analysis; assay type: ADME, cell-based
MDCK-MDR1 = test: Cytotoxicity against MDCKII-MDR1 cells assessed as cell viability at 100 uM measured by MTT assay; assay type: toxicity, cell-based, Canis lupus familiaris; settings: dog, mdck-mdr1, 100 µM
in vitro [9] = settings: human, liver microsomes; remark: listed apart in the source
[10] = target: ATP-dependent translocase ABCB1 (Homo sapiens, UniProt P08183); test: Inhibition of P-gp in human Caco-2 cells using digoxin as substrate; assay type: cell-based
ATP-dependent translocase ABCB1, sequence (P08183 whole entry): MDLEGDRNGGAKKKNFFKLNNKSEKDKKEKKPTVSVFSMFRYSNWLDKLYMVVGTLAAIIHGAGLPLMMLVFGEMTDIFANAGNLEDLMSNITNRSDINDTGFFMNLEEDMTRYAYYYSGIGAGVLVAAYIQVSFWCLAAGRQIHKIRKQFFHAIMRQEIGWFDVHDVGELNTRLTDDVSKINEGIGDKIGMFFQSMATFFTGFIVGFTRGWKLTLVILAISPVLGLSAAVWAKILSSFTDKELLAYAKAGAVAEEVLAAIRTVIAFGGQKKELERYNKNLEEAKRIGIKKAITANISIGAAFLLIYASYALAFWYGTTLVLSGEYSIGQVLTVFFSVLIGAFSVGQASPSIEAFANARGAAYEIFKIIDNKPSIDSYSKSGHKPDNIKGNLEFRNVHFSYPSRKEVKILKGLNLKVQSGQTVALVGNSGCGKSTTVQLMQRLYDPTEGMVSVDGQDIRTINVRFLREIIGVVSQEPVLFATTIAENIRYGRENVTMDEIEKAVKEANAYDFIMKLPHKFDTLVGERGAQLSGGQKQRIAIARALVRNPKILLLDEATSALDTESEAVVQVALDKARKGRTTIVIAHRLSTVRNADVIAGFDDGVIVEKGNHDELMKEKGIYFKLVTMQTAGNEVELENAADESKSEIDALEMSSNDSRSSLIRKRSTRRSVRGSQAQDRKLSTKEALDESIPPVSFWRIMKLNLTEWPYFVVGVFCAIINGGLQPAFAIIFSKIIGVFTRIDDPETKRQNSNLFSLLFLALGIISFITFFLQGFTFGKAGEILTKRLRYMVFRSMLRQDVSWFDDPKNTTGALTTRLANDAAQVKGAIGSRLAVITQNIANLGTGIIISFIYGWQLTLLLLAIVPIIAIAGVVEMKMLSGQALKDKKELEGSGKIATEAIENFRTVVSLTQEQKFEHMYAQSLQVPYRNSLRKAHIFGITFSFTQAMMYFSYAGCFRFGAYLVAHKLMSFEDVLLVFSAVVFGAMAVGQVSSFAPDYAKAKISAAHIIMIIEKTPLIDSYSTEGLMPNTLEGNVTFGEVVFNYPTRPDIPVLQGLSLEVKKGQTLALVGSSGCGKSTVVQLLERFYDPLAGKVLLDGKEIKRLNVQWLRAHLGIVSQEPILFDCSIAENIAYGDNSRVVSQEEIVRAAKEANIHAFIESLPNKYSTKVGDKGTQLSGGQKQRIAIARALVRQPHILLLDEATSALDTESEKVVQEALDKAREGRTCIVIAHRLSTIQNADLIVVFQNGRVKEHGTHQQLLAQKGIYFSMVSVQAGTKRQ

Enterococcus faecium [11] = test: Antibacterial activity against Vancomycin-resistant Enterococcus faecium assessed as inhibition of visible growth incubated for 20 to 24 hrs by microbroth serial dilution assay; assay type: functional; settings: time 20-24 hrs, read-out: MIC100
Staphylococcus aureus [12] = test: Antibacterial activity against multi drug-resistant Staphylococcus aureus USA300 FPR3757 assessed as reduction in bacterial growth of original inoculum at 4 times of MIC concentration measured after 24 hrs by time-kill assay relative to control; assay type: functional
[13] = Solubility of the compound in Dulbecco's PBS at 20 degree C measured after 24 hrs
Enterococcus faecalis = test: Antibacterial activity against Enterococcus faecalis assessed as inhibition of visible growth incubated for 20 to 24 hrs by microbroth serial dilution assay; assay type: functional; settings: time 20-24 hrs, read-out: MIC100
[14] = Efflux ratio of apparent permeability from basolateral to apical side over apical to basolateral side in human Caco-2 cells at 280 uM and measured after 120 mins by LC-MS analysis; assay type: ADME, cell-based
Enterococcus faecium [15] = test: Antibacterial activity against Linezolid/Ampicillin/ciprofloxacin/Vancomycin-resistant Enterococcus faecium assessed as inhibition of visible growth incubated for 20 to 24 hrs by microbroth serial dilution assay; assay type: functional; settings: time 20-24 hrs, read-out: MIC100
Staphylococcus aureus [16] = test: Induction of resistant development in lefamulin 5 passages resistance developed Staphylococcus aureus USA300 FPR3757 assessed as fold increase in MIC at sub-MIC concentration measured after 13 passages with conjugate by serial passage assay; assay type: functional
in vitro [17] = settings: pig, liver microsomes
Staphylococcus aureus [18] = test: Induction of resistant development in lefamulin 5 passages resistance developed Staphylococcus aureus USA300 FPR3757 assessed as fold increase in MIC at sub-MIC concentration measured after 9 passages with conjugate by serial passage assay; assay type: functional
Streptococcus pneumoniae = test: Antibacterial activity against Streptococcus pneumoniae assessed as inhibition of visible growth incubated for 20 to 24 hrs by microbroth serial dilution assay; assay type: functional; settings: time 20-24 hrs, read-out: MIC100
in vitro [19] = settings: mouse, liver microsomes; remark: listed apart in the source
[20] = Inhibition of P-gp efflux in MDCKII-MDR1 cells using calcein-AM as substrate assessed as intracellular calcein fluorescence preincubated for 15 mins followed by substrate addition and measured by fluorescence based assay; assay type: cell-based; settings: Canis lupus familiaris
[21] = Apparent permeability from apical to basolateral side in human Caco-2 cells at 100 uM measured upto 120 mins by LC-MS analysis; assay type: ADME, cell-based
in vitro [22] = settings: pig, liver microsomes; remark: listed apart in the source
Staphylococcus aureus [23] = test: Induction of resistant development in lefamulin 5 passages resistance developed Staphylococcus aureus USA300 FPR3757 assessed as fold increase in MIC at sub-MIC concentration measured after 25 passages with conjugate by serial passage assay; assay type: functional
[24] = Apparent permeability from apical to basolateral side in human Caco-2 cells at 280 uM measured upto 120 mins by LC-MS analysis; assay type: ADME, cell-based
[25] = target: Voltage-gated inwardly rectifying potassium channel KCNH2 (Homo sapiens, UniProt Q12809); test: Inhibition of hERG expressed in HEK293 cells assessed as tail current measured after 8 mins by automated whole-cell Qpatch Clamp assay
Voltage-gated inwardly rectifying potassium channel KCNH2, sequence (Q12809 whole entry): as the sequence (Q12809 whole entry) above

Cytochrome P450 3A4 = Cytochrome P450 3A4 (Homo sapiens, UniProt P08684); test: Inhibition of human CYP3A4 incubated for 60 mins by red fluorescent-probe-based microsomal assay; assay type: ADME
Cytochrome P450 3A4, sequence (P08684 whole entry): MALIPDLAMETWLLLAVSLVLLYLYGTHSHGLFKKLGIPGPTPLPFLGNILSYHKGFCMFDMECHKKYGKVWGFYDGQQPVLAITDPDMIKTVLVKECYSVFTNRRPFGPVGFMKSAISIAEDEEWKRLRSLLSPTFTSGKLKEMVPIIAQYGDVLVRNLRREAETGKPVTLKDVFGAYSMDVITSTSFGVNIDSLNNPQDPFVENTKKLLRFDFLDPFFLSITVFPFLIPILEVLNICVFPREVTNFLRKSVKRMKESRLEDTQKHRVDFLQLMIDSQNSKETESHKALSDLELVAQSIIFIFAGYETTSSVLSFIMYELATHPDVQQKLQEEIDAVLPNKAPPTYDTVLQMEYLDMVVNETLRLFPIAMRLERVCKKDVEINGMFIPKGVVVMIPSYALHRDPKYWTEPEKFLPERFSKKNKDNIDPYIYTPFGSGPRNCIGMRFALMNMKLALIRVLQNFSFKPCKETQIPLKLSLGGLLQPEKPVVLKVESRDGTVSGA

[26] = Plasma protein binding in human at 5 to 15 uM incubated for 5 hrs by LC-MS analysis; assay type: ADME, cell-free; settings: dose 5-15 µM, read-out: PPB (converted)
[27] = Apparent permeability from basolateral to apical side in human Caco-2 cells at 280 uM measured upto 120 mins by LC-MS analysis; assay type: ADME, cell-based
[28] = Efflux ratio of apparent permeability from basolateral to apical side over apical to basolateral side in human Caco-2 cells at 10 uM; assay type: ADME, cell-based
[29] = Elimination rate constant in pig urine at 10 mg/kg, po measured upto 240 mins by LC-MS/MS analysis; assay type: ADME, organism-based, Sus scrofa
[30] = Half life in pig urine at 3 mg/kg, iv measured upto 240 mins by LC-MS/MS analysis; assay type: ADME, organism-based, Sus scrofa
[31] = AUC (0 to infinity) in pig plasma at 3 mg/kg, iv measured upto 240 mins by LC-MS/MS analysis; assay type: ADME, organism-based, Sus scrofa; settings: in vivo, 4 h
[32] = Tmax in NMRI female mouse at 30 mg/kg, iv by HPLC analysis; assay type: ADME, organism-based; settings: in vivo
[33] = Elimination rate constant in NMRI female mouse at 20 mg/kg, sc by HPLC analysis; assay type: ADME, organism-based; settings: in vivo
[34] = Clearance in pig plasma at 3 mg/kg, iv measured upto 240 mins by LC-MS/MS analysis; assay type: ADME, organism-based, Sus scrofa
[35] = Volume of distribution in NMRI female mouse at 20 mg/kg, sc by HPLC analysis; assay type: ADME, organism-based; settings: in vivo
[36] = Tmax in pig plasma at 3 mg/kg, iv measured upto 240 mins by LC-MS/MS analysis; assay type: ADME, organism-based, Sus scrofa
[37] = AUC (0 to infinity) in NMRI female mouse at 20 mg/kg, sc by HPLC analysis; assay type: ADME, organism-based; settings: in vivo

SMILES	Activity (Staphylococcus aureus [1]) [log10CFU/ml]	MIC (Staphylococcus aureus [2]) [µg/mL]	inhibition at 8 min, 60 µM (hERG (KCNH2)) [%]	efflux ratio at 2 h, 100 µM [3]	half-life at 0.5 h, 1 µM (in vitro [4]) [min]	Activity (Staphylococcus aureus [5]) [log10CFU/ml]	Activity (Staphylococcus aureus [6]) [log10CFU/ml]	half-life at 0.5 h, 1 µM (in vitro [7]) [min]	Papp B→A at 2 h, 100 µM [8] [×10⁻⁶ cm/s]	Activity (MDCK-MDR1)	CLint scaled at 0.5 h, 1 µM (in vitro [9]) [mL/min/kg]	MIC (Enterococcus faecium [11]) [µg/mL]	inhibition (INH) (Staphylococcus aureus [12]) [%]	solubility at 24 h [13] [µM]	MIC (Enterococcus faecalis) [µg/mL]	efflux ratio at 2 h, 280 µM [14]	MIC (Enterococcus faecium [15]) [µg/mL]	CLint scaled at 0.5 h, 1 µM (in vitro [17]) [mL/min/kg]	MIC (Streptococcus pneumoniae) [µg/mL]	CLint scaled at 0.5 h, 1 µM (in vitro [19]) [mL/min/kg]	further results
C=C[C@]1(C)C[C@@H](OC(=O)CS[C@@H]2CC[C@@H](N)C[C@H]2O)[C@]2(C)[C@H](C)CC[C@]3(CCC(=O)[C@H]32)[C@@H](C)[C@@H]1O [LEFAMULIN]	2	0.12 (≈ 0.236 µM)	32.8	40.8	4.3	3	2.5	11.5	25.7	Non-Toxic	1460	0.12 (≈ 0.236 µM)	99.9	1920 (≈ 973 µg/mL)	0.06 (≈ 0.118 µM)	3.9	0.12 (≈ 0.236 µM)	359	0.25 (≈ 0.492 µM)	478	IC50 [10]: 34.1 µM; fold change (FC) (Staphylococcus aureus [16]): 32; fold change (FC) (Staphylococcus aureus [18]): 16; IC50 [20]: 43 µM; Papp A→B at 2 h, 100 µM [21]: 0.63 ×10⁻⁶ cm/s; half-life at 0.5 h, 1 µM (in vitro [22]): 15.3 min; fold change (FC) (Staphylococcus aureus [23]): 64; Papp A→B at 2 h, 280 µM [24]: 3.19 ×10⁻⁶ cm/s; IC50 [25]: 126 µM; IC50 (Cytochrome P450 3A4): 0.75 µM; fraction unbound at 5 h, up to 15 µM [26]: 0.34; Papp B→A at 2 h, 280 µM [27]: 12.5 ×10⁻⁶ cm/s; efflux ratio at 10 µM [28]: 68
C=C[C@]1(C)C[C@@H](OC(=O)Cn2cc(-c3ccc(Cn4cnc5c(N6CCNCC6)ncnc54)nc3)nn2)[C@]2(C)[C@H](C)CC[C@]3(CCC(=O)[C@H]32)[C@@H](C)[C@@H]1O	2	0.12 (≈ 0.166 µM)	27.4	48	3.7	3	~3	5.9	23	Non-Toxic	1710	0.03 (≈ 0.0415 µM)	99.9	114 (≈ 82.4 µg/mL)	0.12 (≈ 0.166 µM)	2.5	0.12 (≈ 0.166 µM)	4200	0.03 (≈ 0.0415 µM)	929	k el at 4 h [29]: 8.67e-05 s⁻¹; half-life [30]: 27.6 min; AUC [31]: 35.5 µg/mL/min; Tmax [32]: 0 h; k el [33]: 9.33e-05 s⁻¹; clearance [34]: 84.7 mL/min/kg; Vd [35]: 17.1 L/kg; Tmax [36]: 0 h; AUC [37]: 222 µg/mL/min; IC50 [20]: 47 µM; Papp A→B at 2 h, 100 µM [21]: 0.48 ×10⁻⁶ cm/s; half-life at 0.5 h, 1 µM (in vitro [22]): 1.3 min; Papp A→B at 2 h, 280 µM [24]: 2.12 ×10⁻⁶ cm/s; IC50 [25]: > 200 µM; IC50 (Cytochrome P450 3A4): 0.41 µM; fraction unbound at 5 h, up to 15 µM [26]: 0.27; Papp B→A at 2 h, 280 µM [27]: 5.34 ×10⁻⁶ cm/s
